Assay results from the NIST ThermoML archive (doi:10.1021/je301283e).
Numbers after ± are expanded uncertainties.

Settings: Liquid, Drop volume

CCCCCCCCCCCCCCCC [hexadecane] + O=C=O
interfacial tension [mN/m]
Settings | 313.15 K | 333.15 K | 353.15 K | 373.15 K | 393.15 K
340 kPa | 22.39 ± 0.27 | 20.59 ± 0.23 | 19.15 ± 0.19 | 17.84 ± 0.18 | 16.46 ± 0.15
690 kPa | 21.67 ± 0.27 | 20.1 ± 0.23 | 18.65 ± 0.19 | 17.27 ± 0.17 | 16.12 ± 0.14
1030 kPa | 20.89 ± 0.26 | 19.32 ± 0.23 | 18.15 ± 0.19 | 16.85 ± 0.17 | 15.79 ± 0.14
1380 kPa | 20.29 ± 0.26 | 18.89 ± 0.22 | 17.69 ± 0.19 | 16.47 ± 0.17 | 15.54 ± 0.14
1720 kPa | 19.42 ± 0.26 | 18.21 ± 0.22 | 17.21 ± 0.19 | 15.99 ± 0.17 | 15.11 ± 0.14
2070 kPa | 18.39 ± 0.26 | 17.8 ± 0.22 | 16.74 ± 0.19 | 15.67 ± 0.17 | 14.81 ± 0.14
2410 kPa | 17.81 ± 0.25 | 17.01 ± 0.22 | 16.21 ± 0.18 | 15.29 ± 0.17 | 14.49 ± 0.14
2760 kPa | 17.21 ± 0.25 | 16.38 ± 0.22 | 15.71 ± 0.18 | 14.94 ± 0.17 | 14.18 ± 0.14
3100 kPa | 16.29 ± 0.25 | 15.94 ± 0.22 | 15.31 ± 0.18 | 14.48 ± 0.16 | 13.77 ± 0.13
3450 kPa | 15.49 ± 0.25 | 15.36 ± 0.21 | 14.82 ± 0.18 | 14.21 ± 0.16 | 13.52 ± 0.13
3800 kPa | 14.85 ± 0.25 | 14.8 ± 0.21 | 14.37 ± 0.18 | 13.89 ± 0.16 | 13.2 ± 0.13
4140 kPa | 13.94 ± 0.25 | 14.23 ± 0.21 | 13.88 ± 0.18 | 13.49 ± 0.16 | 12.84 ± 0.13
4480 kPa | 13.36 ± 0.24 | 13.77 ± 0.21 | 13.31 ± 0.18 | 13 ± 0.16 | 12.59 ± 0.13
4830 kPa | 12.38 ± 0.24 | 12.89 ± 0.21 | 12.89 ± 0.17 | 12.58 ± 0.16 | 12.3 ± 0.13
5170 kPa | 11.9 ± 0.24 | 12.49 ± 0.21 | 12.44 ± 0.17 | 12.15 ± 0.16 | 12.06 ± 0.13
5510 kPa | 11.18 ± 0.24 | 11.68 ± 0.21 | 11.81 ± 0.17 | 11.89 ± 0.16 | 11.63 ± 0.13
5860 kPa | 10.46 ± 0.24 | 11.11 ± 0.2 | 11.48 ± 0.17 | 11.47 ± 0.15 | 11.41 ± 0.13
6200 kPa | 9.57 ± 0.24 | 10.36 ± 0.2 | 11.15 ± 0.17 | 11.11 ± 0.15 | 11.18 ± 0.12
6550 kPa | 8.63 ± 0.24 | 9.68 ± 0.2 | 10.74 ± 0.17 | 10.79 ± 0.15 | 10.81 ± 0.12
6890 kPa | 7.78 ± 0.23 | 9.16 ± 0.2 | 10.05 ± 0.17 | 10.28 ± 0.15 | 10.56 ± 0.12
7240 kPa | 7.22 ± 0.23 | 8.82 ± 0.2 | 9.74 ± 0.17 | 9.9 ± 0.15 | 10.19 ± 0.12
7580 kPa | 6.26 ± 0.23 | 8.16 ± 0.2 | 9.44 ± 0.17 | 9.57 ± 0.15 | 9.82 ± 0.12
7930 kPa | 5.48 ± 0.23 | 7.52 ± 0.2 | 8.98 ± 0.16 | 9.35 ± 0.15 | 9.52 ± 0.12
8270 kPa | 4.79 ± 0.23 | 6.86 ± 0.2 | 8.35 ± 0.16 | 8.84 ± 0.15 | 9.23 ± 0.12
8620 kPa | 4.24 ± 0.23 | 6.32 ± 0.19 | 7.67 ± 0.16 | 8.27 ± 0.15 | 8.84 ± 0.12
8960 kPa | 3.49 ± 0.23 | 5.81 ± 0.19 | 7.42 ± 0.16 | 7.87 ± 0.14 | 8.58 ± 0.12
9310 kPa | 2.7 ± 0.23 | 5.19 ± 0.19 | 6.95 ± 0.16 | 7.65 ± 0.14 | 8.16 ± 0.11
9650 kPa | – | 4.57 ± 0.19 | 6.06 ± 0.16 | 7.15 ± 0.14 | 7.92 ± 0.11
10000 kPa | – | 4 ± 0.19 | 5.78 ± 0.16 | 6.74 ± 0.14 | 7.61 ± 0.11
10340 kPa | – | 3.45 ± 0.19 | 5.11 ± 0.16 | 6.41 ± 0.14 | 7.27 ± 0.11
10690 kPa | – | 2.94 ± 0.19 | 4.84 ± 0.16 | 6.16 ± 0.14 | 6.99 ± 0.11
11030 kPa | – | 2.38 ± 0.19 | 4.48 ± 0.15 | 5.64 ± 0.14 | 6.75 ± 0.11
11380 kPa | – | – | 4.04 ± 0.15 | 5.28 ± 0.14 | 6.42 ± 0.11

CCCCCCC [heptane] + O=C=O
interfacial tension [mN/m]
Settings | 313.15 K | 333.15 K | 353.15 K | 373.15 K | 393.15 K
340 kPa | 16.27 ± 0.25 | 14.24 ± 0.2 | 12.36 ± 0.16 | 11 ± 0.14 | 9.62 ± 0.12
690 kPa | 15.56 ± 0.25 | 13.68 ± 0.19 | 11.92 ± 0.16 | 10.64 ± 0.14 | 9.29 ± 0.12
1030 kPa | 14.88 ± 0.25 | 13.1 ± 0.19 | 11.46 ± 0.15 | 10.29 ± 0.14 | 8.99 ± 0.12
1380 kPa | 14.23 ± 0.25 | 12.54 ± 0.19 | 10.99 ± 0.15 | 9.87 ± 0.13 | 8.73 ± 0.12
1720 kPa | 13.42 ± 0.24 | 12 ± 0.19 | 10.6 ± 0.15 | 9.54 ± 0.13 | 8.45 ± 0.11
2070 kPa | 12.71 ± 0.24 | 11.38 ± 0.19 | 10.13 ± 0.15 | 9.27 ± 0.13 | 8.23 ± 0.11
2410 kPa | 12.05 ± 0.24 | 10.8 ± 0.19 | 9.78 ± 0.15 | 8.84 ± 0.13 | 7.93 ± 0.11
2760 kPa | 11.17 ± 0.24 | 10.2 ± 0.18 | 9.24 ± 0.15 | 8.45 ± 0.13 | 7.63 ± 0.11
3100 kPa | 10.54 ± 0.24 | 9.62 ± 0.18 | 8.71 ± 0.15 | 8.1 ± 0.13 | 7.32 ± 0.11
3450 kPa | 9.76 ± 0.24 | 8.92 ± 0.18 | 8.19 ± 0.14 | 7.67 ± 0.13 | 7.1 ± 0.11
3800 kPa | 9.04 ± 0.24 | 8.32 ± 0.18 | 7.86 ± 0.14 | 7.35 ± 0.13 | 6.84 ± 0.11
4140 kPa | 8.36 ± 0.23 | 7.76 ± 0.18 | 7.34 ± 0.14 | 7 ± 0.13 | 6.61 ± 0.11
4480 kPa | 7.47 ± 0.23 | 7.23 ± 0.18 | 6.95 ± 0.14 | 6.68 ± 0.12 | 6.25 ± 0.11
4830 kPa | 6.74 ± 0.23 | 6.66 ± 0.18 | 6.5 ± 0.14 | 6.35 ± 0.12 | 6 ± 0.11
5170 kPa | 5.87 ± 0.23 | 6.1 ± 0.18 | 6.11 ± 0.14 | 5.95 ± 0.12 | 5.74 ± 0.11
5510 kPa | 5.1 ± 0.23 | 5.58 ± 0.17 | 5.83 ± 0.14 | 5.68 ± 0.12 | 5.44 ± 0.1
5860 kPa | 4.23 ± 0.23 | 5.11 ± 0.17 | 5.46 ± 0.14 | 5.41 ± 0.12 | 5.24 ± 0.1
6200 kPa | 3.59 ± 0.23 | 4.61 ± 0.17 | 4.95 ± 0.14 | 5.08 ± 0.12 | 4.96 ± 0.1
6550 kPa | 3.07 ± 0.23 | 4.04 ± 0.17 | 4.41 ± 0.14 | 4.69 ± 0.12 | 4.68 ± 0.1
6890 kPa | 2.39 ± 0.23 | 3.52 ± 0.17 | 4.01 ± 0.13 | 4.38 ± 0.12 | 4.37 ± 0.1
7240 kPa | – | 3.02 ± 0.17 | 3.61 ± 0.13 | 3.94 ± 0.12 | 4.1 ± 0.1
7580 kPa | – | 2.4 ± 0.17 | 3.22 ± 0.13 | 3.67 ± 0.12 | 3.81 ± 0.1
